We go through 1 compound from US20260317304A1, “TEAD INHIBITORS AND METHODS OF USE” (Sporos BioDiscovery, Inc., priority 2022, published 2026).

The structures appear in SMILES notation.

The T/C is the result in the treated group divided by that in the control group, in per cent.

In assay [1] the test system is MSTO-211H xenograft. Description: Mouse xenograft MSTO-211H tumors, study part 2. The class given is in vivo, BALB/c nude mice. Particulars: PO. From the text:
(§1) This study evaluated the in vivo anti-tumor efficacy of test compounds in BALB/c nude mice for treatment of MSTO-211H xenograft of lung cancer.
(§2) • Species: Mus Musculus • Strain: BALB/c nude • Age: 6-8 weeks • Sex: female • Body weight: 18-22 g • Number of animals inoculated with tumor: 80 mice • Number of animals enrolled in the treatment: 36 mice • Number of unenrolled animals: 44 mice • Animal supplier: Beijing Vital River Biotechnology Experimental Animal Co. Ltd Certification number: 20170011010591
(§3) The MSTO-211H tumor cells were maintained in RPMI 1640 medium supplemented with 10% Fetal bovine serum and 1% Antibiotic-Antimycotic at 37° C. in an atmosphere of 5% CO2 in air. The tumor cells were routinely subcultured twice weekly by trypsin-EDTA. The cells growing in an exponential growth phase with 95% cell survival or above were harvested, and counted for tumor inoculation.
(§4) Each mouse was inoculated subcutaneously at the right flank with MSTO-211H tumor cells (5×10^6+50% matrigel/0.2 mL) for tumor development. Animals were marked with earrings with unique 6 significant figure number for identification. The treatments of part 1 were started on day 5 after cell inoculation when the average tumor volume reached 181 mm^3. The treatments of part 2 were started on day 16 after cell inoculation when the average tumor volume reached 254 mm^3. The treatments of part 3 were started on day 33 after cell inoculation when the average tumor volume reached 969 mm^3.
(§5) The major endpoint was to determine if the tumor growth could be delayed. Tumor volume was measured twice a week in two dimensions using a caliper, and the volume was expressed in mm^3 using the formula: V=0.5 a×b^2 where a and b are the long and short diameters of the tumor, respectively. The tumor size was then used for calculations of T/C value. The TGI value (in percent) or the T/C value (in percent) is an indication of antitumor effectiveness; T and C are the mean tumor volumes or tumor weights of the treated and control groups, respectively, on a given day.
(§6) TGI was calculated for each group using the formula: TGI (%)=[1−(Ti−T0)/(Vi−V0)]×100; Ti is the average tumor volume of a treatment group on a given day, T0 is the average tumor volume of the treatment group on the day of treatment start, Vi is the average tumor volume of the vehicle control group on the same day with Ti, and V0 is the average tumor volume of the vehicle group on the day of treatment start.
(§7) Relative T/C (%)=TRTV/CRTV×100 (RTV (%)=Vt/V0×100, Vt is the average tumor volume on a given day, V0 is the average tumor volume on the first day of treatment. TRTV is the RTV of a treatment group, and the CRTV is the RTV of the vehicle control group.)
The antitumor effectiveness of part 2 study was analyzed on PG-D30 when vehicle group reached 738 mm^3.
(§8) Summary statistics, including mean and the standard error of the mean (SEM), were provided for the tumor volume of each group at each time point.
(§9) Statistical analysis of difference in tumor volume among the groups was conducted on the data obtained at the end of the study.
(§10) One-tailed T test was performed to compare tumor volumes between two groups. All data are analyzed using GraphPad Prism 6.0. p<0.05 is considered to be statistically significant.

Assay [2] relates to MSTO-211H xenograft. Description: Mouse xenograft MSTO-211H tumors, study part 3. Particulars: PO. It counts as in vivo, BALB/c nude mice.
Source text: as §1, §2, §3, §4, §5, §6, §7
The antitumor effectiveness of part 3 study was analyzed on PG-D13 when vehicle group reached 1791 mm^3.
as §8, §9, §10

The mark [3] stands for this setting: part 2, day 30, 12.5 mg/kg, BID.
The mark [4] stands for this setting: part 3, day 13, 12.5 mg/kg, BID.

Turning to `Cn1nnc(-c2cc([C@]3(C)CCNC3=O)ccc2Nc2ccc(C(F)(F)F)cc2)n1` (stereo in doubt) [Compound 20, 3-methyl-3-(3-(2-methyl-2H-tetrazol-5-yl)-4-((4-(trifluoromethyl)phenyl)amino)phenyl) pyrrolidin-2-one], the Tumor size with MSTO-211H xenograft [1] (part 2, day 0, 12.5 mg/kg, BID) is 254 ± 30 mm^3; in the assay on MSTO-211H xenograft [1] (part 2, day 2, 12.5 mg/kg, BID), 249 ± 37 mm^3; with MSTO-211H xenograft [1] (part 2, day 6, 12.5 mg/kg, BID), 160 ± 39 mm^3; with MSTO-211H xenograft [1] (part 2, day 9, 12.5 mg/kg, BID) it was 116 ± 36 mm^3; with MSTO-211H xenograft [1] (part 2, day 12, 12.5 mg/kg, BID) it was 80 ± 13 mm^3; in the assay on MSTO-211H xenograft [1] (part 2, day 16, 12.5 mg/kg, BID), 75 ± 10 mm^3. Moreover, the Tumor size in the assay with MSTO-211H xenograft [1] (part 2, day 20, 12.5 mg/kg, BID) was determined as 78 ± 14 mm^3; in the assay with MSTO-211H xenograft [1] (part 2, day 23, 12.5 mg/kg, BID), 91 ± 10 mm^3; with MSTO-211H xenograft [1] (part 2, day 27, 12.5 mg/kg, BID), 96 ± 6 mm^3; with MSTO-211H xenograft [1] (setting [3]) it was 164 ± 15 mm^3; in the assay on MSTO-211H xenograft [2] (part 3, day 0, 12.5 mg/kg, BID) it was 963 ± 136 mm^3; with MSTO-211H xenograft [2] (part 3, day 3, 12.5 mg/kg, BID), 740 ± 122 mm^3. Moreover, the Tumor size is 591 ± 61 mm^3 in the assay on MSTO-211H xenograft [2] (part 3, day 6, 12.5 mg/kg, BID); 444 ± 36 mm^3 in the assay on MSTO-211H xenograft [2] (part 3, day 10, 12.5 mg/kg, BID); 339 ± 51 mm^3 in the assay on MSTO-211H xenograft [2] (setting [4]). Also, the T/C turned out to be 22.24% in the assay on MSTO-211H xenograft [1] (setting [3]) and 18.94% in the assay with MSTO-211H xenograft [2] (setting [4]). The TGI in the assay on MSTO-211H xenograft [1] (setting [3]) stood at 118.44%; in the assay on MSTO-211H xenograft [2] (setting [4]), 177.56%. Also, the “Tumor Volume” value with MSTO-211H xenograft [1] (part 2, day 30, 12.5 mg/kg, BID (Table 17)) is given as 164 ± 15 mm^3; in the assay with MSTO-211H xenograft [2] (part 3, day 13, 12.5 mg/kg, BID (Table 18)), 339 ± 51 mm^3.
